Test results reported in patent US20260015339A1, “CALIX[4]ARENES WITH HIGH ANTICANCER ACTIVITY” (UNIVERSITE GRENOBLE ALPES, priority 2023, published 2026).

Experiments:
[1] = Cu^+ binding by 1H NMR titration; settings: 1H NMR titration with Cu(MeCN)4BF4, CD3CN/CDCl3 4/1, 298 K
Experimental: Binding abilities and complexation constants of the examples of calix[4]arenes of the present invention and the comparative examples with Cu^+ were evaluated by ^1H NMR titrations at 298 K using copper(I)tetrakis(acetronitrile)tetrafluoroborate.
For example, for each separate calix[4]arene a stock solution of the tested calix[4]arene was prepared in a CD3CN/CDCl3, 4/1 mixture. Using this stock solution, a Cu(MeCN)4BF4 solution was prepared and added by steps of 0.25 equivalent of copper(I) up until 1 equivalent and then by steps of 0.5 equivalent until a total of at least 2 equivalents. ^1H NMR spectra were recorded at a 400 MHz spectrometer at 298 K for the stock solutions of the calix[4]arenes and after each addition of Cu(MeCN)4BF4.
Calix[4]arenes for which a gradual change of the chemical shifts of the ^1H NMR signals (>0.1 ppm for at least one of the signals) was observed upon addition of up to 4-5 equivalents of Cu(MeCN)4BF4 were considered to show weak binding.

[2] = Cu^+ transport into liposomes with encapsulated BCS; settings: POPC/cholesterol 7:3 LUVs, calix[4]arene to lipid 1:1000, 50 μM copper gradient, F/F0 after 600 s
Experimental: The ability of the examples of calix[4]arenes of the invention and the comparative examples to be delivered into a lipidic bilayer membrane of a liposome from a solution and their capacity to then act as a transporter of Cu^+ was evaluated using bathocuproine disulphonate (hereafter abbreviated “BCS”) encapsulated in large unilamellar vesicles (LUVs, also referred to as liposomes) composed of 1-palmitoyl-2-oleoyl-sn-glycero-3-phosphocholine and cholesterol in a 7:3 ratio.
BCS is a fluorescent water soluble phenantroline derivative that can be used as fluorescent dye for the sensing of Cu^+ through the formation of a non-fluorescent 2:1 complex.
Stock solution of lipids were prepared using deacidified CHCl3 and stored in a freezer. CHCl3 was deacidified by passing through activated basic alumina. The lipids used to prepare the liposomes were 2-oleoyl-1-palmitoyl-sn-glycero-3-phosphocholine (POPC), (purity ≥99%) and cholesterol (purity of 95%). 50 mM sodium phosphate buffer were prepared with Millipore water at pH 7 (±0.1) by mixing the solution of the mono- and the di-protonated phosphate salts. The solution of the dye (BCS) was prepared at 0.5 mM concentration in phosphate buffer.
The lipids solutions were mixed in different ratios in a 5 mL round bottom flask. The POPC/cholesterol molar ratio was 7:3 in all experiments. The total amount of lipids per batch varied depending on the amount of liposomes solution required for the experiment. After mixing the lipid solutions in a round bottom flask, the chloroform was evaporated under a gentle air flow and the resulting lipid film was dried at high vacuum for at least an hour. 500 μL of the BCS solution in phosphate buffer and a magnetic stir bar were added to the flask. The flask was then sonicated for 30 seconds and placed under magnetic agitation for at least an hour. The solution was frozen with liquid nitrogen and heated back to room temperature with warm water ten times to form large unilamellar vesicles (LUVs). The liposome solution was extruded 29 times, using an extrusion kit equipped with a membrane with 200 nm pores. Subsequently, the solution was eluted with the buffer solution used for the experiment through a size exclusion column (Sephadex G-25) to remove the external BCS and then diluted with phosphate buffer to obtain a concentration of 0.4 mM in lipids.
Solutions of the calix[4]arenes were prepared at a concentration of 0.24 mM in DMSO and 5 μL of the solution was added 2 minutes before each transport measurement.
Alternatively, calix[4]arenes were pre-incorporated by combining the calix[4]arene (dissolved in chloroform) with the lipids prior to the evaporation of the chloroform to obtain a lipid film. The concentrations and volumes were chosen to obtain a calix[4]arene to lipid of 1:1000.
Fluorescence measurements were performed with a Horiba FluoroMax 4 spectrometer using a 4-faced quartz cuvette (10 mm×10 mm). For the Cu^+ transport assay, the excitation was set at 278 nm and emission was recorded at 393 nm. These values correspond to the excitation and emission maxima of BCS encapsulated inside LUVs.
The Cu^+ solutions added to the liposomes were obtained by dissolving Cu(MeCN)4BF4 in MeCN at 15.25 mM concentration. The copper solution was then diluted by a factor 5 in a phosphate buffer during the first 30 seconds of the experiment to reach a copper concentration of 3.05 mM. 50 μL of the diluted copper solution was added to 3 mL of liposomes, resulting in a copper gradient of 50 μM. The fluorescence level was monitored for 600 seconds after the addition of the copper solution.
For each run the initial plateau and the initial vertical drop (due to the binding of the exterior dye with Cu^+ and the dilution, 1-4 seconds after the addition) were removed. Then the signal was normalised by dividing the fluorescence values (F) by the value at t=0 second (F0). […]

[3] = test system: H322 lung carcinoma cells; experiment: MTS cytotoxicity assay on H322; assay type: cell-based; settings: NCI-H322; H322, 72 hours of treatment
Experimental: H322 lung carcinoma cells were seeded in 96-well plates together with the calix[4]arene of the formula (2). Cells were grown in RPMI-1640 supplemented with GlutaMAX™ (Gibco™) and fetal calf serum (FCS, 10%) and treated with a broad range of concentrations of the calix[4]arene of the formula (2). After 72 hours of treatment, the cytotoxicity was measured by means of the IC50 value, using the kit “CellTiter 96R AQuous One Solution Cell Proliferation Assay (MTS)” from Promega™. Following 30 minutes of incubation with the MTS reagent, the endpoint measurements were done in triplicate at 485 nm, using a fluorescence plate reader.
H322 lung carcinoma cells were seeded in 96-well plates together with the compound of the 2nd comparative example of the formula (XI). Cells were grown in RPMI-1640 supplemented with GlutaMAX™ (Gibco™) and fetal calf serum (FCS, 10%) and treated with a broad range of concentrations of the 2nd comparative example of the formula (XI). After 72 hours of treatment, the cytotoxicity was measured by means of the IC50 value, using the kit “CellTiter 96R AQuous One Solution Cell Proliferation Assay (MTS)” from Promega™. Following 30 minutes of incubation with the MTS reagent, the endpoint measurements were done in triplicate at 485 nm, using a fluorescence plate reader.
H322 lung carcinoma cells were seeded in 96-well plates together with the 1st comparative example of the formula (X). Cells were grown in RPMI-1640 supplemented with GlutaMAX™ (Gibco™) and fetal calf serum (FCS, 10%) and treated with a broad range of concentrations of the compound of the formula (X). After 72 hours of treatment, the cytotoxicity was measured by means of the IC50 value, using the kit “CellTiter 96R AQuous One Solution Cell Proliferation Assay (MTS)” from Promega™. Following 30 minutes of incubation with the MTS reagent, the endpoint measurements were done in triplicate at 485 nm, using a fluorescence plate reader.
H322 lung carcinoma cells were seeded in 96-well plates together with the tested calix[4]arenes. Cells were grown in RPMI-1640 supplemented with GlutaMAX™ (Gibco™) and fetal calf serum (FCS, 10%) and treated with a broad range of concentrations of the tested calix[4]arenes. After 72 hours of treatment, the cytotoxicity was measured by means of the IC50 value, using the kit “CellTiter 96R AQuous One Solution Cell Proliferation Assay (MTS)” from Promega™. Following 30 minutes of incubation with the MTS reagent, the endpoint measurements were done in triplicate at 485 nm, using a fluorescence plate reader.

[4] = test system: Hepatocellular carcinoma (HepG2/C3A) cells; experiment: MTT cytotoxicity assay (DL50); assay type: cell-based; settings: 24 hours of incubation
Experimental: Cytotoxicity was evaluated using the MTT assay. 1.10^4 cells per well were seeded in a flat-bottom 96-well plate and were incubated for 48 hours at 37° C. with 5% CO2 before addition of the different calix[4]arenes at concentrations up to 200 μM. In all experiments, each condition was performed in triplicate in the plate. Besides, each experiment was done three times independently. After 24 hours of incubation in presence of the compounds, medium was discarded, cells were rinsed with PBS and 100 μL of medium containing 0.5 mg/mL of MTT was added to each well. After 30 minutes of incubation at 37° C., MTT solution was discarded and formazan crystals formed were dissolved in 150 μL of 4 mM HCl, 0.1% NP40 in isopropanol. The absorbance in the wells were read in a microplate reader (Tecan microplate reader-550) at 570 nm.

[5] = test system: PC9 human lung cancer cells; experiment: MTS cytotoxicity assay, combination with CuCl2, PC9; settings: 72 hours
Experimental: PC9 human lung cancer cells were seeded in 96-well plates together with the calix[4]arene of the formula (2) and CuCl2. Cells were grown in RPMI-1640 supplemented with GlutaMAX™ (Gibco™) and fetal calf serum (FCS, 10%) treated with a broad range of concentrations of the calix[4]arene of the formula (2) or/and CuCl2 from Merck. After 72 hours of treatment, the cytotoxicity was measured by means of the IC50 value, using the kit “CellTiter 96R AQuous One Solution Cell Proliferation Assay (MTS)” from Promega™. Following 30 minutes of incubation with the MTS reagent, the endpoint measurements were done in triplicate at 485 nm, using a fluorescence plate reader.

[6] = test system: H322 lung carcinoma cells; experiment: MTS cytotoxicity assay, combination with CuCl2, H322; settings: 72 hours
Experimental: H322 lung carcinoma cells were seeded in 96-well plates together with the calix[4]arene of the formula (2) and CuCl2. Cells were grown in RPMI-1640 supplemented with GlutaMAX™ (Gibco™) and fetal calf serum (FCS, 10%) treated with a broad range of concentrations of the calix[4]arene of the formula (2) or/and CuCl2 from Merck. After 72 hours of treatment, the cytotoxicity was measured by means of the IC50 value, using the kit “CellTiter 96R AQuous One Solution Cell Proliferation Assay (MTS)” from Promega™ Following 30 minutes of incubation with the MTS reagent, the endpoint measurements were done in triplicate at 485 nm, using a fluorescence plate reader.

[7] = test system: A549 human lung cancer cells; experiment: MTS cytotoxicity assay, combination with CuCl2, A549; settings: 72 hours
Experimental: A549 human lung cancer cells were seeded in 96-well plates together with the calix[4]arene of the formula (2) and CuCl2. Cells were grown in RPMI-1640 supplemented with GlutaMAX™ (Gibco™) and fetal calf serum (FCS, 10%) treated with a broad range of concentrations of the calix[4]arene of the formula (2) or/and CuCl2 from Merck. After 72 hours of treatment, the cytotoxicity was measured by means of the IC50 value, using the kit “CellTiter 96R AQuous One Solution Cell Proliferation Assay (MTS)” from Promega™. Following 30 minutes of incubation with the MTS reagent, the endpoint measurements were done in triplicate at 485 nm, using a fluorescence plate reader.

SMILES	Cu^+ binding [1]	Cu^+ transport [2]	IC50 [3]	IC50 [4]	other results
C=CCOc1c2cccc1Cc1cccc(c1OCc1nccn1C)Cc1cccc(c1OCC=C)Cc1cccc(c1OCc1nccn1C)C2 [(3)]	Strong binding (means an affinity constant (Ka) equal or greater than 10^5 M^−1)	Yes (means that a significant decrease of the fluorescence of encapsulated BCS was observed upon addition of Cu^+ to the liposomes (F/F0<0.65 after 600 s))	5 µM	4.5 µM	–
CCOC(=O)COc1c2cccc1Cc1cccc(c1OCc1nccn1C)Cc1cccc(c1OCC(=O)OCC)Cc1cccc(c1OCc1nccn1C)C2 [(4)]	Strong binding (means an affinity constant (Ka) equal or greater than 10^5 M^−1)	Yes (means that a significant decrease of the fluorescence of encapsulated BCS was observed upon addition of Cu^+ to the liposomes (F/F0<0.65 after 600 s))	6 µM	3.1 µM	–
COc1c2cccc1Cc1cccc(c1OCc1nccn1C)Cc1cccc(c1OC)Cc1cccc(c1OCc1nccn1C)C2 [(5)]	Strong binding (means an affinity constant (Ka) equal or greater than 10^5 M^−1)	Yes (means that a significant decrease of the fluorescence of encapsulated BCS was observed upon addition of Cu^+ to the liposomes (F/F0<0.65 after 600 s))	> 10 µM	23 µM	–
Cn1ccnc1COc1c2cccc1Cc1cccc(c1O)Cc1cccc(c1OCc1nccn1C)Cc1cccc(c1O)C2 [(6)]	Strong binding (means an affinity constant (Ka) equal or greater than 10^5 M^−1)	Yes (means that a significant decrease of the fluorescence of encapsulated BCS was observed upon addition of Cu^+ to the liposomes (F/F0<0.65 after 600 s))	> 10 µM	20.7 µM	–
CCCOc1c2cc([N+](=O)[O-])cc1Cc1cccc(c1OCc1nccn1C)Cc1cc([N+](=O)[O-])cc(c1OCCC)Cc1cccc(c1OCc1nccn1C)C2 [(7)]	Strong binding (means an affinity constant (Ka) equal or greater than 10^5 M^−1)	Yes (means that a significant decrease of the fluorescence of encapsulated BCS was observed upon addition of Cu^+ to the liposomes (F/F0<0.65 after 600 s))	5 µM	10.9 µM	–
CCCOc1c2cccc1Cc1cccc(c1OCc1nc3ccccc3n1C)Cc1cccc(c1OCCC)Cc1cccc(c1OCc1nc3ccccc3n1C)C2 [(8)]	Strong binding (means an affinity constant (Ka) equal or greater than 10^5 M^−1)	Yes (means that a significant decrease of the fluorescence of encapsulated BCS was observed upon addition of Cu^+ to the liposomes (F/F0<0.65 after 600 s))	–	128 µM	–
CCCOc1c2cccc1Cc1cccc(c1OCc1ncco1)Cc1cccc(c1OCCC)Cc1cccc(c1OCc1ncco1)C2 [(9)]	Weak binding (means a change of the chemical shifts of the ^1H NMR signals (>0.1 ppm for at least one of the signals) is observed upon addition of up to 4-5 equivalents of Cu(MeCN)4BF4)	Yes (means that a significant decrease of the fluorescence of encapsulated BCS was observed upon addition of Cu^+ to the liposomes (F/F0<0.65 after 600 s))	–	70 µM	–
CCCOc1c2cccc1Cc1cccc(c1OCc1nccs1)Cc1cccc(c1OCCC)Cc1cccc(c1OCc1nccs1)C2 [(10)]	Weak binding (means a change of the chemical shifts of the ^1H NMR signals (>0.1 ppm for at least one of the signals) is observed upon addition of up to 4-5 equivalents of Cu(MeCN)4BF4)	Yes (means that a significant decrease of the fluorescence of encapsulated BCS was observed upon addition of Cu^+ to the liposomes (F/F0<0.65 after 600 s))	–	–	–
CCCOc1c2cccc1Cc1cccc(c1OCc1ccccn1)Cc1cccc(c1OCCC)Cc1cccc(c1OCc1ccccn1)C2 [(38)]	Strong binding (means an affinity constant (Ka) equal or greater than 10^5 M^−1)	Yes (means that a significant decrease of the fluorescence of encapsulated BCS was observed upon addition of Cu^+ to the liposomes (F/F0<0.65 after 600 s))	–	–	–
Oc1c(I)cc(Cl)c2cccnc12 [Clioquinol, clioquinol, reference compound]	–	–	–	67 µM	–
[Cl][Cu][Cl] [Cu^2+, CuCl2]	–	–	–	–	percentage of cell viability ([5]; PC9, Cu^2+ 1 μM alone ((2) 0 μM)): 90.9%; percentage of cell viability ([5]; PC9, Cu^2+ 5 μM alone ((2) 0 μM)): 87.1%; percentage of cell viability ([5]; PC9, Cu^2+ 10 μM alone ((2) 0 μM)): 81.0%; percentage of cell viability ([5]; PC9, Cu^2+ 25 μM alone ((2) 0 μM)): 77.1%; percentage of cell viability ([5]; PC9, Cu^2+ 50 μM alone ((2) 0 μM)): 68.8%; percentage of cell viability ([6]; H322, Cu^2+ 1 μM alone ((2) 0 μM)): 87.2%; percentage of cell viability ([6]; H322, Cu^2+ 5 μM alone ((2) 0 μM)): 83.3%; percentage of cell viability ([6]; H322, Cu^2+ 10 μM alone ((2) 0 μM)): 79.5%; percentage of cell viability ([6]; H322, Cu^2+ 25 μM alone ((2) 0 μM)): 72.9%; percentage of cell viability ([6]; H322, Cu^2+ 50 μM alone ((2) 0 μM)): 60.6%; percentage of cell viability ([7]; A549, Cu^2+ 1 μM alone ((2) 0 μM)): 89.4%; percentage of cell viability ([7]; A549, Cu^2+ 5 μM alone ((2) 0 μM)): 88.1%; percentage of cell viability ([7]; A549, Cu^2+ 10 μM alone ((2) 0 μM)): 84.6%; percentage of cell viability ([7]; A549, Cu^2+ 25 μM alone ((2) 0 μM)): 85.6%; percentage of cell viability ([7]; A549, Cu^2+ 50 μM alone ((2) 0 μM)): 79.4%
CCCOc1c2cccc1Cc1cccc(c1OCc1nccn1C)Cc1cccc(c1OCCC)Cc1cccc(c1OCc1nccn1C)C2 [formula (2)]	–	–	–	3.1 µM	–
